The values below come from patent publication US11517581B2, “Zika virus protease inhibitors and methods of use thereof” (priority 2017, dated 2022).

Converted amounts (≈) assume the structure as drawn.

The test system of series [1] is ZIKV. The note with it: recently reported; cited from earlier work.
The target in a further series is ZIKV NS2B-NS3 protease (Zika virus, UniProt A0A024B7W1, DEL1468-1502). In kind it is biochemical. The note with it: 10 μM substrate; for Effect of increasing drug concentrations on protease activity: 5 nM protease.
Series [2] deals with ZIKV. The note with it: literature; cited from earlier work.
For series [3], the system named is ZIKV NS2B-NS3 protease (recombinant fusion, ZIKV-NS2B residues 49-95 and ZIKV-NS3 residues 1-170). Kind of series: Fluorescence-based protease inhibition assay. The note with it: 10 μM substrate, 5 nM protease. In kind it is biochemical, Zika virus. From the text: The recombinant ZIKV NS2B-NS3 protease was produced as previously described with some modifications (Lei et al., 2016). Briefly, coding regions of the ZIKV-NS2B (residues 49-95) and ZIKV-NS3 (residues 1-170) genes were fused and cloned into the pET-28b(+) expression vector (Novagen, Merck & Co., New Jersey, USA). The plasmid was transformed into Escherichia coli strain BL21 (DE3) and overexpressed in 2×YT medium. When the OD600 of the culture reached 0.8, overexpression of the ZIKV NS2B-NS3 protease gene was induced for overnight by addition of 0.5 mM IPTG at 20° C. […] The purified protein was detected by Western blot using anti-His-tag antibodies. Concentration of protein was determined by Bradford protein assay kit (Bio-Rad Laboratories, California, USA) using bovine serum albumin as standard.
The recombinant ZIKV NS2B-NS3 protease was produced as previously described with some modifications (Lei et al., 2016). To detect ZIKV NS2B-NS3 protease activity, a fluorescence-based enzymatic assay was conducted in 96-well black micro-plates (Greiner Bio-One, Kremsmünster, Germany). […] The fluorescence signal from the released AMC was measured at 460 nm with excitation at 360 nm, using a VICTOR™ X3 multilabel plate reader (Perkin Elmer, Massachusetts, USA). […] After 10 min, the fluorescence intensity was measured. […]

The nature of series [4]: Cell viability (MTT) assay in Huh-7 cells. In kind it is cell-based. The note with it: human. On the procedure: (§1) Briefly, Vero or Huh-7 cells (4×10^4 cells/well) were incubated with different concentrations of individual drug for 24 h, followed by the addition of 10 μl/well of 5 mg/ml MTT substrate. The monolayers were incubated as above for 4 h (away from light). Finally, 100 μl of 10% sodium dodecyl sulfate (SDS) with 0.01M HCl was added and further incubated at 37° C. with 5% CO2 overnight. […] Briefly, the drug compounds were diluted with serum-free MEM and added to confluent Vero cells in 96-well culture plates (4×10^4 cells/well) in triplicate for 2 h at 37° C. After incubation, the drug-containing media were removed, and ZIKV (multiplicity of infection, MOI=0.0002) was added together with fresh drug-compound media to each well. Following 1 h of adsorption at 37° C., the virus-compound mixture was removed and the cells were washed twice with MEM to remove unbound virus. Subsequently, media with antiviral compounds were added to the cells for further incubation for 6 days at 37° C. in a 5% CO2 humidified environment. CPE was examined by inverted light microscopy (Chan et al., 2016b). Thereafter, MTT substrate and SDS-HCl were added sequentially as mentioned above. The half maximal inhibitory concentration (IC50) and CC50 were calculated using Sigma plot (SPSS) in an Excel add-in ED50V10.

Series [5] concerns ZIKV (Puerto Rico strain PRVABC59). Kind of series: Viral load reduction assay (qRT-PCR) in Vero cells. It is filed as cell-based, Zika virus. The note with it: culture supernatants, Vero and Huh-7; data not shown.
Series [6] is described as follows: Cell viability (MTT) assay in Vero cells. It is filed as cell-based. To be noted: African green monkey. As to the method: as §1
For series [7] the following is noted: oral and parenteral; cited from earlier work.

Sequence of ZIKV NS2B-NS3 protease (A0A024B7W1 1502-1672, added parts left off, stated change not applied): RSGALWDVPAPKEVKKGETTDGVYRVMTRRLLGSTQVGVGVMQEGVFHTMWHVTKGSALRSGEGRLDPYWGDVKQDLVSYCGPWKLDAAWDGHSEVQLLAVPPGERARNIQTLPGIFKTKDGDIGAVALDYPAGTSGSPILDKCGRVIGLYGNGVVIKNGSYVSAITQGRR

Consider `OC(c1cc(C(F)(F)F)nc2c(C(F)(F)F)cccc12)C1CCCCN1` (centres unmarked) [Mefloquine], for which the “In vitro anti-ZIKV effects” value in the series on ZIKV [1] was “in vitro anti-ZIKV effects”.

On to `CC[C@H]1OC(=O)[C@H](C)[C@@H](O[C@H]2C[C@@](C)(OC)[C@@H](O)[C@H](C)O2)[C@H](C)[C@@H](O[C@@H]2O[C@H](C)C[C@H](N(C)C)[C@H]2O)[C@](C)(O)C[C@@H](C)CN(C)[C@H](C)[C@@H](O)[C@]1(C)O` [Azithromycin], for which the “In vitro anti-ZIKV effects” value in the series with ZIKV [1] is “in vitro anti-ZIKV effects”. Turning to Octreotide acetate, on ZIKV NS2B-NS3 protease, the “Effect of increasing drug concentrations on protease activity” value (“Effect of increasing drug concentrations” below) is recorded as “dose-dependent reduction in protease activity”. Turning to Aprotinin [listing 1 of 2 here], on ZIKV NS2B-NS3 protease (5 nM ZIKV NS2B-NS3 protease, positive control), the “IC50 (vs protease activity)” value was determined as 13.6 ± 1.1 KIU/ml. Regarding `CC(C)OC(=O)[C@H](C)N[P@](=O)(OC[C@H]1O[C@@H](n2ccc(=O)[nH]c2=O)[C@](C)(F)[C@@H]1O)Oc1ccccc1` [Sofosbuvir], the “In vitro anti-ZIKV effects” value in the series with ZIKV [1] is listed as “in vitro anti-ZIKV effects”. Moreover, the “Efficacy in animal models” value in the series with ZIKV [2] is given as “effective in animal models”. For `CC[C@H](C)[C@H]1O[C@]2(CC[C@@H]1C)C[C@@H]1C[C@@H](C/C=C(\C)[C@@H](O[C@H]3C[C@H](OC)[C@@H](O[C@H]4C[C@H](OC)[C@@H](O)[C@H](C)O4)[C@H](C)O3)[C@@H](C)/C=C/C=C3\CO[C@@H]4[C@H](O)C(C)=C[C@@H](C(=O)O1)[C@]34O)O2` [Ivermectin], the “In vitro anti-ZIKV effects” value in the series with ZIKV [1] is recorded as “in vitro anti-ZIKV effects”. For the compound `CCN(CC)CCCC(C)Nc1ccnc2cc(Cl)ccc12` (centres unmarked) [Chloroquine], the “In vitro anti-ZIKV effects” value in the series on ZIKV [1] is “in vitro anti-ZIKV effects”. With `CCCCCCCCCC(=O)N[C@@H](Cc1c[nH]c2ccccc12)C(=O)N[C@H](CC(N)=O)C(=O)N[C@@H](CC(=O)O)C(=O)N[C@@H]1C(=O)NCC(=O)N[C@@H](CCCN)C(=O)N[C@@H](CC(=O)O)C(=O)N[C@H](C)C(=O)N[C@@H](CC(=O)O)C(=O)NCC(=O)N[C@H](CO)C(=O)N[C@@H]([C@H](C)CC(=O)O)C(=O)N[C@@H](CC(=O)c2ccccc2N)C(=O)O[C@@H]1C` [Daptomycin], in the series on ZIKV [1], the “In vitro anti-ZIKV effects” value was “in vitro anti-ZIKV effects”.

Consider Aprotinin [listing 2 of 2 here], for which the “Reduction in protease activity with increasing concentrations” value in series [3] is listed as “blocked the protease cleavage activity”.

In the case of `N=C(N)NCCC[C@H](NC(=O)[C@@H]1CCCN1C(=O)[C@@H]1CSSCCC(=O)N[C@@H](Cc2ccc(O)cc2)C(=O)N[C@@H](Cc2ccccc2)C(=O)N[C@@H](CCC(N)=O)C(=O)N[C@@H](CC(N)=O)C(=O)N1)C(=O)NCC(N)=O` [Desmopressin acetate], on ZIKV NS2B-NS3 protease, the “Effect of increasing drug concentrations” value was “dose-dependent reduction in protease activity”. With `O=C(Nc1ccc([N+](=O)[O-])cc1Cl)c1cc(Cl)ccc1O` [Niclosamide], in the series with ZIKV [1], the “In vitro anti-ZIKV effects” value is listed as “in vitro anti-ZIKV effects”. One may read the CC50 as the concentration that lowers cell viability or growth by half. Regarding `CO[C@H]1/C=C/O[C@@]2(C)Oc3c(C)c(O)c4c(O)c(c(/C=N/N5CCN(C)CC5)c(O)c4c3C2=O)NC(=O)/C(C)=C\C=C\[C@H](C)[C@H](O)[C@@H](C)[C@@H](O)[C@@H](C)[C@H](OC(C)=O)[C@@H]1C` [Rifampicin], the CC50 at 24 h in series [4] and in series [6] was 400 µg/mL (≈ 486 µM) throughout. In addition, the “Effect of increasing drug concentrations” value at ZIKV NS2B-NS3 protease is “dose-dependent reduction in protease activity”. In addition, in series [5], the “Dose-dependent reduction in virus titer observed” value is “not”. `O=C(Nc1ccc([N+](=O)[O-])cc1Cl)c1cc(Cl)ccc1O` [niclosamide]: in series [7], the Solubility entry is recorded as “insoluble”.
